Measurements as given in patent US7265136B1, “Substituted stilbene compounds with vascular damaging activity” (Angiogene Pharmaceuticals Ltd., priority 1999, dated 2007).

Tests used:
CaNT tumours = assay: Induction of necrosis in tumours, scored on haematoxylin and eosin stained sections; format: in vivo, mice; conditions: Carcinoma NT tumour, 24 h post dose, mean score from at least three tumours, control tumours 2.0
Description: Mice bearing either CaNT or SaS tumours were treated with the test compound and tumours excised after 24 h, fixed in formalin, embedded in paraffin, sectioned and stained with haematoxylin and eosin. Sections were scored based on area of necrosis as follows:
Control tumours had mean scores of 2.0 (CaNT) and 1.0 (SaS). Mean values from at least three different tumours were obtained for each test compound.

CaNT tumour vasculature = assay: Activity against tumour vasculature measured by fluorescent dye (Hoechst 33342): tumour functional vascular volume; format: in vivo, mice; conditions: Carcinoma NT tumour, 24 h post dose
Description: Activity Against Tumour Vasculature Measured by Fluorescent Dye.
Tumour functional vascular volume in CaNT tumour-bearing mice was measured using the fluorescent dye Hoechst 33342 according to the method of Smith et al (Brit J Cancer 57, 247-253, 1988). The fluorescent dye was dissolved in saline at 6.25 mg/ml and injected intravenously at 10 mg/kg 24 hours after drug treatment. One minute later, animals were killed and tumours excised and frozen; 10 μm sections were cut at 3 different levels and observed under UV illumination using an Olympus microscope equipped with epifluorescence. Blood vessels were identified by their fluorescent outlines and vascular volume was quantified using a point scoring system based on that described by Chalkley, (J Natl Cancer Inst, 4, 47-53, 1943). All estimates were based on counting a minimum of 100 fields from sections cut at the 3 different levels.

| Structure (SMILES) | Necrosis score (CaNT tumours; 50 mg/kg i.p.) | Necrosis score (CaNT tumours; 50 mg/kg i.v.) | Vascular volume % reduction (CaNT tumour vasculature; 50 mg/kg i.p.) | Vascular volume % reduction (CaNT tumour vasculature; 50 mg/kg i.v.) |
| --- | --- | --- | --- | --- |
| COc1ccc(/C=C\c2cc(OC)c(OC)c(OC)c2)cc1OP(=O)(O)O [CA4P, Combretastatin A4 phosphate] | 6.0 | 5.7 | 91% | 88% |
| COc1ccc(/C=C\c2cc(OC)c(OC)c(OC)c2)cc1OC(=O)C(N)CCCN=C(N)N[N+](=O)[O-] (centres unmarked) [Cmpd. of Example 1, (Z)-1-(4-Methoxy-3-N^G-nitroarginyloxyphenyl)-2-(3,4,5-trimethoxyphenyl)ethene] | – | 10.0 | – | 98% |
| COC(=O)C(CCCN=C(N)N[N+](=O)[O-])NC(=O)Oc1cc(/C=C\c2cc(OC)c(OC)c(OC)c2)ccc1OC (centres unmarked) [Cmpd. of Example 2, (Z)-N-[2-methoxy-5-[2-(3,4,5-trimethoxyphenyl)ethenyl]phenoxycarbonyl]N^G-nitroarginine Methyl Ester] | 8.0 | – | 95% | – |
